From US11066416B2, “Rapafucin derivative compounds and methods of use thereof” (The Johns Hopkins University, priority 2016, dated 2021)

How the values were obtained:
293T = assay: Nucleoside uptake assay (uptake) using 3H-Thymidine, 293T; format: cell-based; conditions: 293T cells
Method: Nucleoside Uptake Assay (uptake). Nuceloside uptake assays were performed with using 3H-Thymidine as described in Guo et al. (2018) Nat. Chem. 11:254-63. Specific cell lines are indicated in each assay and cultured in complete growth media. Activity is scored according to the IC50 values relative to DMSO control. “Low” indicates an IC50 greater than 600 nM, “Medium” indicates an IC50 between 300 nM and 600 nM “High” indicates an IC50 less than 300 nM. “Rel.Uptake” refers to uptake activity characterization relative to a single concentration assay. “Low” indicates a response greater than 0.6 times the activity relative to DMSO, “Medium” indicates a response between 0.6 and 0.3 times the activity relative to DMSO, “High” indicates a response less than 0.3 times the activity relative to DMSO.

[1] = test system: nucleoside uptake (3H-Thymidine); assay: Rel.Uptake: nucleoside uptake, single concentration assay, cell line as indicated in each table; format: cell-based; conditions: 293T, nucleoside uptake, response relative to DMSO
In short: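 3H-thymidine uptake measured in the indicated cell lines (e.g. 293T) grown in complete media. IC50 scored relative to DMSO control as Low >600 nM, Medium 300-600 nM, High <300 nM; Rel.Uptake single-concentration response vs DMSO scored Low >0.6, Medium 0.3-0.6, High <0.3.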

Row | SMILES | Uptake, 293T (293T; Table 15) | Rel. Uptake, 293T [1] | IC50 (293T; Table 14) | Uptake, 293T (293T; Table 14) | IC50 (293T; Table 15)
1 | COc1ccc(CC[C@H]2OC(=O)[C@@H]3CCCCN3C(=O)C(=O)C(C)(C)COC(=O)C=CCCN(C)C(=O)[C@H](CC(C)C)N(C)C(=O)[C@H]3CCCN3C(=O)[C@H](Cc3ccc(C(=O)Nc4cccnc4)cc3)NC(=O)[C@H](c3ccccc3)NC(=O)CCC(=O)Nc3cccc2c3)cc1OC [Compound 1562] | low | low |  |  | 
2 | COc1ccc(CC[C@H]2OC(=O)[C@@H]3CCCCN3C(=O)C(=O)C(C)(C)COC(=O)C=CCCN(C)C(=O)[C@H](CC(C)C)N(C)C(=O)[C@H]3CCCN3C(=O)[C@H](Cc3ccc(CNC(=O)c4ccccc4)cc3)NC(=O)[C@H](c3ccccc3)NC(=O)CCC(=O)Nc3cccc2c3)cc1OC [Compound 1585] |  | High (“High” indicates a response less than 0.3 times the activity relative to DMSO) | < 0.3 µM |  | 
3 | COc1ccc(CC[C@H]2OC(=O)[C@@H]3CCCCN3C(=O)C(=O)C(C)(C)COC(=O)C=CCCN(C)C(=O)[C@H](CC(C)C)N(C)C(=O)[C@H]3CCCN3C(=O)[C@H](Cc3ccc(CNC(=O)Cc4ccccc4)cc3)NC(=O)[C@H](c3ccccc3)NC(=O)CCC(=O)Nc3cccc2c3)cc1OC [Compound 1586] |  | Med |  | Med | 
4 | COc1ccc(CC[C@H]2OC(=O)[C@@H]3CCCCN3C(=O)C(=O)C(C)(C)COC(=O)C=CCCN(C)C(=O)[C@H](CC(C)C)N(C)C(=O)[C@H]3CCCN3C(=O)[C@H](Cc3ccc(CNC(=O)CN(C)C)cc3)NC(=O)[C@H](c3ccccc3)NC(=O)CCC(=O)Nc3cccc2c3)cc1OC [Compound 1587] |  | Low (“Low” indicates a response greater than 0.6 times the activity relative to DMSO) | > 0.6 µM |  | 
5 | COc1ccc(CC[C@H]2OC(=O)[C@@H]3CCCCN3C(=O)C(=O)C(C)(C)COC(=O)C=CCCN(C)C(=O)[C@H](CC(C)C)N(C)C(=O)[C@H]3CCCN3C(=O)[C@H](Cc3cccc(NC(C)=O)c3)NC(=O)[C@H](c3ccccc3)NC(=O)CCC(=O)Nc3cccc2c3)cc1OC [Compound 1588] |  | High (“High” indicates a response less than 0.3 times the activity relative to DMSO) | < 0.3 µM |  | 
6 | COc1ccc(CC[C@H]2OC(=O)[C@@H]3CCCCN3C(=O)C(=O)C(C)(C)COC(=O)C=CCCN(C)C(=O)[C@H](CC(C)C)N(C)C(=O)[C@H]3CCCN3C(=O)[C@H](Cc3ccc(NC(=O)Cc4cccnc4)cc3)NC(=O)[C@H](c3ccccc3)NC(=O)CCC(=O)Nc3cccc2c3)cc1OC [Compound 1589] |  | Low (“Low” indicates a response greater than 0.6 times the activity relative to DMSO) | > 0.6 µM |  | 
7 | COc1ccc(CC[C@H]2OC(=O)[C@@H]3CCCCN3C(=O)C(=O)C(C)(C)COC(=O)C=CCCN(C)C(=O)[C@H](CC(C)C)N(C)C(=O)[C@H]3CCCN3C(=O)[C@H](Cc3ccc(CC(=O)NCc4ccccc4)cc3)NC(=O)[C@H](c3ccccc3)NC(=O)CCC(=O)Nc3cccc2c3)cc1OC [Compound 1590] |  | High (“High” indicates a response less than 0.3 times the activity relative to DMSO) |  |  | > 0.6 µM
8 | CCCCCCNC(=O)Cc1ccc(C[C@@H]2NC(=O)[C@H](c3ccccc3)NC(=O)CCC(=O)Nc3cccc(c3)[C@@H](CCc3ccc(OC)c(OC)c3)OC(=O)[C@@H]3CCCCN3C(=O)C(=O)C(C)(C)COC(=O)C=CCCN(C)C(=O)[C@H](CC(C)C)N(C)C(=O)[C@H]3CCCN3C2=O)cc1 [Compound 1591] |  | Med |  |  | > 0.6 µM
